Measurements reported in ChEMBL document CHEMBL1201862, “PubChem BioAssay data set” (2004).
Active and inactive are the calls of the source.

Columns and labels:
[1] = NIH-3T3 fibroblast cytotoxicity, dose response, cytotoxicity control, cell-based, fluorescence, Alamar Blue, secondary assay (AID 2327); format: functional;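 also: NIH-3T3 mouse fibroblasts cultured with fluconazole at 8 µg/mL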
Vero = Vero cell cytotoxicity, cytotoxicity control for flavivirus capping enzyme inhibitors (AID 588742); format: functional; settings: Chlorocebus sabaeus
[2] = C. albicans growth with fluconazole, confirmation, fluorescence, retest (AID 2467); format: functional, cell-based
Leucine aminopeptidase = target: T1, Leucine aminopeptidase (Plasmodium falciparum 3D7, UniProt Q8IL11); assay: P. falciparum M17LAP inhibitors, primary screen, biochemical, fluorogenic H-Leu-NHMec substrate, 1536-well (AID 1619); format: functional
T1 sequence (Q8IL11 whole entry): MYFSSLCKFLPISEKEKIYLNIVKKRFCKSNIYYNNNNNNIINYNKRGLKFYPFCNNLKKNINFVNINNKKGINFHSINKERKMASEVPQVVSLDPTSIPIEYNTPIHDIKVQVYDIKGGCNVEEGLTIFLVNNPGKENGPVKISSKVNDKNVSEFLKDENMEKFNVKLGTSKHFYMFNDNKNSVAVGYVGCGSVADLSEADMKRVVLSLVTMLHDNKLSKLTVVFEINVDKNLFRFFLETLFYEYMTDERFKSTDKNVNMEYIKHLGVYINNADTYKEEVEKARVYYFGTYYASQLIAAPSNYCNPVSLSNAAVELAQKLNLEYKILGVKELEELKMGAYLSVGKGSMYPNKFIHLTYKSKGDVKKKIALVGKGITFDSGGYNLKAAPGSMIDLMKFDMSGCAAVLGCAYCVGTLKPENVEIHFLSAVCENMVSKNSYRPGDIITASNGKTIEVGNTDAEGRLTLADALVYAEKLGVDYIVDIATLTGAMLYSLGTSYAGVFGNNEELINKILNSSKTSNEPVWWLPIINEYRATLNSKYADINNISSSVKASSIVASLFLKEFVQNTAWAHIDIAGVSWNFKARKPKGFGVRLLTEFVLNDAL

[3] = target: DNA dC->dU-editing enzyme APOBEC-3G (Homo sapiens, UniProt Q9HC16); assay: Dose Response confirmation of small molecule APOBEC3G DNA Deaminase Inhibitors via a fluorescence-based single-stranded DNA deaminase assay. [Related pubchem assays (depositor defined):AID493012, AID493028]; format: functional
Chain of DNA dC->dU-editing enzyme APOBEC-3G (Q9HC16 whole entry): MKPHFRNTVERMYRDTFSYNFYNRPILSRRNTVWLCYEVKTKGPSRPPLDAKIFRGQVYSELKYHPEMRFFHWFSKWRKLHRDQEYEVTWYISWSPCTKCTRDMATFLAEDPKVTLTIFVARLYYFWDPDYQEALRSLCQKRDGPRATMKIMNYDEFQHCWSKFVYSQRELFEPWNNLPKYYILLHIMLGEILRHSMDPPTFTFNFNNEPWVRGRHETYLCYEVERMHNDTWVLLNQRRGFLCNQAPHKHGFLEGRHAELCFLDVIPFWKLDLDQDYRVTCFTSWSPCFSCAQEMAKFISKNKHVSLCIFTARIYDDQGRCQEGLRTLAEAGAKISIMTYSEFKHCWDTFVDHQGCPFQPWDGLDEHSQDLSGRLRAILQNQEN

[4] = growth suppression of PTEN-null colon cells, dose response, cell-based, HCT116 PTEN knockout (AID 1047); format: functional;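 also: HCT116 colon tumor cells with PTEN knocked out; cells exposed to compound for 60 hours before readout; potency for loss of cell viability measured by luminescence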
[5] = growth suppression of beta-catenin-knockout colon cells, dose response, cell-based, HCT116, human colon tumor (AID 1045); format: functional;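 also: HCT116 colon tumor cells with beta catenin knocked out; cells exposed to compound for 60 hours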
[6] = intracellular Trypanosoma cruzi inhibitors in host cells – cell-based, plate reader, cherry-pick samples, set 3, dose response (AID 651818); format: functional;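 also: compounds incubated with infected cells for about four days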
Prothrombin = Prothrombin (Homo sapiens, UniProt P00734); assay: Thrombin 1536 HTS Dose Response Confirmation. [Related pubchem assays: 1046 (Thrombin 1536 HTS; hits were confirmed in this assay)]; format: functional
Coagulation factor XII = target: T2, Coagulation factor XII (Homo sapiens, UniProt P00748); format: functional;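 also: activated factor XIIa alpha cleaving a fluorogenic AMC peptide substrate; inhibitor potency from loss of enzyme activity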
T2 sequence (P00748 whole entry): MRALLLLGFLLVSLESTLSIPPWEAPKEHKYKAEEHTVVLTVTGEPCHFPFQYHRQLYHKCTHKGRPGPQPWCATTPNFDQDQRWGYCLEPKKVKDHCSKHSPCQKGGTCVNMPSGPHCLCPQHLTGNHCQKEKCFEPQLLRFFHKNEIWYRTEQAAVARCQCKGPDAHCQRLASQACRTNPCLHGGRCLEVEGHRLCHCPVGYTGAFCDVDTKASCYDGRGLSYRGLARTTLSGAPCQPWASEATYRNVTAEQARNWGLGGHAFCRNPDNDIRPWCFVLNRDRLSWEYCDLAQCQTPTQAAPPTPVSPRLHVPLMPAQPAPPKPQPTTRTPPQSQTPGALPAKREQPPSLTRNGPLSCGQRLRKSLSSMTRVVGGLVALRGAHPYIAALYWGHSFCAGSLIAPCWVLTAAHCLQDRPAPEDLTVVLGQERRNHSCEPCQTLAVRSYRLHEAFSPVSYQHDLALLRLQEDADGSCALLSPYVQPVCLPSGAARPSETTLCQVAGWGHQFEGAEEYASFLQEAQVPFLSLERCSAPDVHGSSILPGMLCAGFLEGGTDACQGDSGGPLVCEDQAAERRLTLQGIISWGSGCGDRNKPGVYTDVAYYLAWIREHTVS

cells [7] = format: functional, cell-based
cells [8] = format: functional, cell-based; remark: listed apart in the source
H9c2 = assay: cells; format: functional, cell-based; settings: Rattus norvegicus, H9c2, Myocardium;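 also: confirmatory concentration-response retest of ultra-high-throughput screening hits for modulation of myocardial damage; cell death induced by hydrogen peroxide oxidative stress; compound pretreatment for 60 min then peroxide exposure for 2 h; potency is for protecting the cells against peroxide damage rather than for killing them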
[9] = target: Induced myeloid leukemia cell differentiation protein Mcl-1 (Homo sapiens, UniProt Q07820); format: functional
Chain of Induced myeloid leukemia cell differentiation protein Mcl-1 (Q07820 whole entry): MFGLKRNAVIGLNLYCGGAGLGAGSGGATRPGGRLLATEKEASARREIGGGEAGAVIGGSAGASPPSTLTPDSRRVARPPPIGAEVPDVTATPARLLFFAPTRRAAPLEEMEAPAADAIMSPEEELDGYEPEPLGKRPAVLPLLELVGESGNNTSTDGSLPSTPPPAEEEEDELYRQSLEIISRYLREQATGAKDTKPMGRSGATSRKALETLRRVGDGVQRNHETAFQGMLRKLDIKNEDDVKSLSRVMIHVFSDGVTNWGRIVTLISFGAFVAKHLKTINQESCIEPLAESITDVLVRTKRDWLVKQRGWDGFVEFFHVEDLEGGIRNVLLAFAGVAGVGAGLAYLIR

HeLa = assay: HeLa cell cytotoxicity, dose response, cytotoxicity control for MITF activator project, CellTiter-Glo luminescence, cherry-pick samples (AID 540259); format: functional, cell-based; settings: Homo sapiens
Fatty acid synthase [10] = target: T3, Fatty acid synthase (Homo sapiens, UniProt P49327); assay: FAS thioesterase domain inhibitors, dose response, biochemical, kinetic fluorescence intensity (AID 624326); format: functional;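 also: rate of fluorescence rise from hydrolysis of a fluorogenic O-methyl fluorescein ester substrate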
T3 sequence (P49327 whole entry, the tested form may be a part): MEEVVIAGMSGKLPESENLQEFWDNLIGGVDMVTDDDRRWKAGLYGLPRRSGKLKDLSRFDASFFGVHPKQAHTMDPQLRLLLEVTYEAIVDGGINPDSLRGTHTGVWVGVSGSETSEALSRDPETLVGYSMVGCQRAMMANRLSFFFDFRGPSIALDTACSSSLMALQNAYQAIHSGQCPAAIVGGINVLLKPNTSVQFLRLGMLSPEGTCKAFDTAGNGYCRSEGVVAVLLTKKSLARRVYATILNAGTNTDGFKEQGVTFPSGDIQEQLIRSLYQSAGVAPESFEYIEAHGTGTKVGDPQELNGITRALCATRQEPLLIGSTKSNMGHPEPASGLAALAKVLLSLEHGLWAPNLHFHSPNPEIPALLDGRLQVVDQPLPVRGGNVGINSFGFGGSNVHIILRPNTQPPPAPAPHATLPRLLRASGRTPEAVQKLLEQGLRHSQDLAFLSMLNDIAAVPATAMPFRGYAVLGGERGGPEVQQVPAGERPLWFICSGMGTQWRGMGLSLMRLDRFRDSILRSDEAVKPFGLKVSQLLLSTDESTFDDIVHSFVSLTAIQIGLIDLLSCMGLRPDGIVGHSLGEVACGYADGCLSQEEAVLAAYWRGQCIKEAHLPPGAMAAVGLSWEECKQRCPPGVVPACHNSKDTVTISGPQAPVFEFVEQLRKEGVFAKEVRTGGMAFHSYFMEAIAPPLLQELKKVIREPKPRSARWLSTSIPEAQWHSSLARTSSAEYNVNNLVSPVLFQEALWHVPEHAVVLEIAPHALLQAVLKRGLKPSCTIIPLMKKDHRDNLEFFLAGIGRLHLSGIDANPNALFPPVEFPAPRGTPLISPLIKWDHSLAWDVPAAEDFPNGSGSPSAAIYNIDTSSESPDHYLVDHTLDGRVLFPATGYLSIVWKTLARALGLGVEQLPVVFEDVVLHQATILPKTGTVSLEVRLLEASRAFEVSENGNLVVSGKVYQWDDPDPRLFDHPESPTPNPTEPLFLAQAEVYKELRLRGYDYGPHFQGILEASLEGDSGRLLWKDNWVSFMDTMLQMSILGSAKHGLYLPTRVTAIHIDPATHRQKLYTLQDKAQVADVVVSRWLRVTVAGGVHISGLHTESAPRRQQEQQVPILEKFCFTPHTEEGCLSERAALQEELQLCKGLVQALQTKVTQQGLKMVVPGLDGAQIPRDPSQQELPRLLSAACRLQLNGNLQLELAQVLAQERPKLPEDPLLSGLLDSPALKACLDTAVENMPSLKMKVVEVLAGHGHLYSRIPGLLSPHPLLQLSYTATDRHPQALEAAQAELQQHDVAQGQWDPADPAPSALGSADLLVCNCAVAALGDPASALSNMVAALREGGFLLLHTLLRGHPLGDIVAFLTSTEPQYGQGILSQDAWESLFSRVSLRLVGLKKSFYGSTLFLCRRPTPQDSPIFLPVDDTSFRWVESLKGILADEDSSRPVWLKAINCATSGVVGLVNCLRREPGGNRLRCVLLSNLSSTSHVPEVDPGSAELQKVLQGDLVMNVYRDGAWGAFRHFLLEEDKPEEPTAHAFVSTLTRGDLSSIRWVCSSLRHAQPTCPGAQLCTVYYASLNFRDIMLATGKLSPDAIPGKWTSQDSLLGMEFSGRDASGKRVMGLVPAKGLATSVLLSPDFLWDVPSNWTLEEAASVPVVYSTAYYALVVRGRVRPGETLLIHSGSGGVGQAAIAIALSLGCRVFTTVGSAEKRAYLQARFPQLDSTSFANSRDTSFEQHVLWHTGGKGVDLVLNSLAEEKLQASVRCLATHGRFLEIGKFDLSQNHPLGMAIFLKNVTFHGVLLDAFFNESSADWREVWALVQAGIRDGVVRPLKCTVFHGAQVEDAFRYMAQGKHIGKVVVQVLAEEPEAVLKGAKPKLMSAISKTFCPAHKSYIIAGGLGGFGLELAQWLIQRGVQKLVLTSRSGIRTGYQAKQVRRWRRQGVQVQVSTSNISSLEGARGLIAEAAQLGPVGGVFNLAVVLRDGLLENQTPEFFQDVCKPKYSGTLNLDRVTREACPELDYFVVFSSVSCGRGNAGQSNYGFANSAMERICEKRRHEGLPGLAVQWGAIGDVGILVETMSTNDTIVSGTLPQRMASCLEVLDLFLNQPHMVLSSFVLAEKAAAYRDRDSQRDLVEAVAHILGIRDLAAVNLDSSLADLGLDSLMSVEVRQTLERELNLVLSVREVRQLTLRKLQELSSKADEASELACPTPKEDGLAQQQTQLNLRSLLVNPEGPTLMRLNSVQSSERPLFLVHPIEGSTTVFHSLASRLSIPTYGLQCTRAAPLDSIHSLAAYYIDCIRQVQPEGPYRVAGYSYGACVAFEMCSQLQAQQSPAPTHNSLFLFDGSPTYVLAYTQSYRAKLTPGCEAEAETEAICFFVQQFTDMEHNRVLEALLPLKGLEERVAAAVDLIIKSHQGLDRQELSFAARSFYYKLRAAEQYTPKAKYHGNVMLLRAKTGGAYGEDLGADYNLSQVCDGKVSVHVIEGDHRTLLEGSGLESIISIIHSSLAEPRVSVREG

Fatty acid synthase [11] = target: T3, Fatty acid synthase; assay: FAS thioesterase domain inhibitors, dose response, biochemical, endpoint fluorescence intensity, uHTS hits (AID 624327); format: functional;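 also: fluorescence from hydrolysis of an O-methyl fluorescein acyl ester substrate by the enzyme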
[12] = cytotoxicity toward NIH3T3 fibroblasts, dose response, counter-screen, cell-based, ATP luminescence, mouse fibroblasts (AID 2010); format: functional;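 also: cells exposed to compound for about 90 hours before reading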
[13] = inhibitors of intracellular T. cruzi replication, confirmation, NIH3T3 host cells, beta-gal luminescence (AID 2044); format: functional, cell-based;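 also: intracellular parasites grown in NIH/3T3 mouse fibroblasts as host cells; luminescent beta-galactosidase reporter signal from transgenic T. cruzi replicating inside host cells; inhibitors lower the luminescence signal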
Genome polyprotein = Genome polyprotein (dengue virus type 2, UniProt P29990); assay: Dengue-2 NS5 methyltransferase inhibitors, primary screen, biochemical, confirmation dose response (AID 588689); format: functional
Melanocortin receptor 4 = Melanocortin receptor 4 (Homo sapiens, UniProt P32245); assay: MC4R antagonist potency on cAMP, dose response, cell-based, TR-FRET, biased antagonists (AID 602298); format: functional;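 also: antagonist potency against agonist-stimulated cAMP production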
Chain of Melanocortin receptor 4 (P32245 whole entry): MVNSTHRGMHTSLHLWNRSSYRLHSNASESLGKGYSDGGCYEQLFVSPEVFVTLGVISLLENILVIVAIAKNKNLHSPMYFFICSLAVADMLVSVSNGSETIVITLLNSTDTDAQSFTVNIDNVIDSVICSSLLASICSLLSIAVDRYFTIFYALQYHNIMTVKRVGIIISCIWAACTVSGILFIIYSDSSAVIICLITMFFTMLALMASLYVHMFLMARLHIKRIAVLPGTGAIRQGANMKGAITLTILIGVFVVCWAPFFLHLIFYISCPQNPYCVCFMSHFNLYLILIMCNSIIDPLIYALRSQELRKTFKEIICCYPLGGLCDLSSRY

Cytochrome P450 2D6 = Cytochrome P450 2D6 (Homo sapiens, UniProt P10635);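 also: CYP2D6 member of a cytochrome P450 panel assay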
Chain of Cytochrome P450 2D6 (P10635 whole entry): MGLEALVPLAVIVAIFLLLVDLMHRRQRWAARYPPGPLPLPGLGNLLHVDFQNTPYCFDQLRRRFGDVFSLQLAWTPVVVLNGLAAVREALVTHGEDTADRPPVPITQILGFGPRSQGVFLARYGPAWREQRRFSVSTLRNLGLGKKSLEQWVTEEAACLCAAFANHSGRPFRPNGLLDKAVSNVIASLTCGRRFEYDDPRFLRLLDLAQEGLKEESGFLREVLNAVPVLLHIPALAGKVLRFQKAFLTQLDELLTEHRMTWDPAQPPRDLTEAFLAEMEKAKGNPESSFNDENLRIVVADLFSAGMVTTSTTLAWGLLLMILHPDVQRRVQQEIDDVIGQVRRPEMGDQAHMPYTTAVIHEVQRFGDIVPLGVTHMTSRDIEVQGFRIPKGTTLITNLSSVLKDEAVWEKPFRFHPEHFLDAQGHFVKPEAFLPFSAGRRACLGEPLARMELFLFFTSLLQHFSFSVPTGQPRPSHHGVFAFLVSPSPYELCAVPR

Paired box protein Pax-8 = Paired box protein Pax-8 (Homo sapiens, UniProt Q06710); assay: inhibitors of PAX8-driven TPO luciferase reporter, dose response, RMG-I cells, cherry-pick (AID 687027); format: functional, cell-based;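 also: luciferase reporter driven by Pax8 target thyroperoxidase promoter measured by SteadyGlo luminescence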
Chain of Paired box protein Pax-8 (Q06710 whole entry): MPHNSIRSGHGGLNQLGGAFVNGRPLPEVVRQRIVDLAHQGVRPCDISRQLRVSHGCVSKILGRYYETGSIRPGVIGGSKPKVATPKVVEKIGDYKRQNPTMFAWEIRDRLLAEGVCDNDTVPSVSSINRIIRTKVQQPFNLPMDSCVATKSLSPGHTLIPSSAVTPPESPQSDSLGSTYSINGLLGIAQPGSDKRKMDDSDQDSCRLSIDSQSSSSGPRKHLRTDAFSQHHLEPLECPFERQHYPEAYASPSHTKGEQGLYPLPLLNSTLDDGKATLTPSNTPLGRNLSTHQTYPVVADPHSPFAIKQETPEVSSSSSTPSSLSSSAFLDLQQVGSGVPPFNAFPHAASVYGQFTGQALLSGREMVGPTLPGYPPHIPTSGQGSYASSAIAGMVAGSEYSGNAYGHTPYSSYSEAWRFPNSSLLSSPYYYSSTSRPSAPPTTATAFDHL

[14] = system: Streptococcus sp. 'group A'; assay: growth inhibition of control SK(-) GAS strain, dose response, counter-screen for streptokinase expression inhibitor project, luminescence, kanamycin, BacTiterGlo, confirmation (AID 1900); format: functional, organism-based
Streptococcus = assay: Group A Streptococcus viability loss, dose response, counter-screen for streptokinase expression inhibitor project, luminescence, BacTiterGlo (AID 1915); format: functional, organism-based; settings: read-out: EC50;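 also: potency for reduction of bacterial viability or growth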
[15] = HepG2 cell cytotoxicity, dose response, cytotoxicity control for Shn3 inhibitor project, CellTiter-Glo, cherry-picked (AID 624134); format: functional, cell-based
[16] = Luminescence Cell-Based Dose Retest to Confirm Inhibitors of Cancer Stem Cells. [Related pubchem assays (depositor defined):AID2717, AID2721]; format: functional; settings: Homo sapiens
[17] = nonselective inhibitors of cellular cAMP signaling, dose response, counter-screen for MC4R biased antagonist project, cell-based, TR-FRET cAMP detection (AID 602305); format: functional;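 also: U2OS cells stimulated with forskolin near its EC80 as the cAMP inducer; potency is for inhibition of forskolin-stimulated cAMP signaling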
[18] = Shn3 3'UTR reporter inhibitors, dose response, cell-based, Clone20 osteoblasts, firefly luciferase, cherry-picked (AID 624132); format: functional;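 also: firefly luciferase luminescence from reporter carrying the Shn3 3'UTR in osteoblasts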
Streptokinase A = target: T4, Streptokinase A (Streptococcus pyogenes serotype M1, UniProt P10520); assay: S. pyogenes streptokinase expression inhibitors, potency, dose response, plasminogen activation absorbance, OD405 (AID 1914); format: functional, Streptococcus pyogenes M1 GAS;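 also: secreted streptokinase activity via plasminogen activation per viability signal from cell pellet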
T4 sequence (P10520 whole entry): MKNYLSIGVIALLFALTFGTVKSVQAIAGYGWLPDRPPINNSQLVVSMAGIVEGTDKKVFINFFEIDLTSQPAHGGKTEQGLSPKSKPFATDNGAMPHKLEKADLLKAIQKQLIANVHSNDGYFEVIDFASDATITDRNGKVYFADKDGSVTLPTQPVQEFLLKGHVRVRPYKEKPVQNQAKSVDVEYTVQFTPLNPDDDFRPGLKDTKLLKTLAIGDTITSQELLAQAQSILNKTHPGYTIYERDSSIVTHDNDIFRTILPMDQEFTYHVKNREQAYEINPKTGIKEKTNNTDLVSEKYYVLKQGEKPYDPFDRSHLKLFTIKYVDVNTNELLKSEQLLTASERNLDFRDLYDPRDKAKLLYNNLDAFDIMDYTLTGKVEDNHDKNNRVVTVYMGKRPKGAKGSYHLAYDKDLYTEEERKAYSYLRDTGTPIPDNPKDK

O=C1N=C(Nc2ccccc2Cl)S/C1=C\c1cccc([N+](=O)[O-])c1O
EC50 [1]: > 150 µM (inactive) | CC50 (Vero): > 40 µM (active) | EC50 [2]: 7.16 µM (active)

O=C(NCc1ccco1)C(=O)c1cn(CC(=O)N2CCCCCC2)c2ccccc12
IC50 (Leucine aminopeptidase): 11.6 µM (active)

CCOC(=O)c1sc(=S)n(C)c1NC(=O)c1ccc(OC)cc1
IC50 [3]: 41.1 µM (active)

Oc1ccc(/N=C/C=C/c2ccc(Br)cc2)cc1-c1nc2ccccc2s1
EC50 [4]: 28.8 µM (active) | EC50 [5]: 22.4 µM (active)

Cc1ccc(S(=O)(=O)Nc2cccc3c2O[C@@H](CN(C)Cc2ccc(-c4ccccc4)cc2)[C@@H](C)CN([C@@H](C)CO)C3=O)cc1
AC50 [6]: 3.36 µM (active)

CCCN1CCC(N2CCCC(C(=O)O)C2)CC1 (stereo not given)
IC50 (Prothrombin): > 50 µM (not active)

CCOc1ccc(-n2c(SCC(=O)Nc3cc(C)on3)nnc2-c2c[nH]c3ccccc23)cc1
IC50 (Coagulation factor XII): > 50 µM (inactive)

CCOCCn1c(-c2ccc(OC)cc2)nc2ccccc21
IC50 (Coagulation factor XII): > 50 µM (inactive)

CC1CCCN(c2c([N+](=O)[O-])c(=O)oc3ccccc23)C1 (stereo not given)
EC50 (cells [7]): > 29.9 µM (inactive) | IC50 (cells [8]): > 29.9 µM (inactive)

COc1cc(OC)c2ccc(=O)oc2c1C(CC(=O)N1CCN(c2ccccc2)CC1)c1ccc2c(c1)OCO2 (stereo not given)
IC50 (H9c2): > 79 µM (inactive)

c1ccc2c(c1)OCC(c1nnc3sc(-c4ccc5c(c4)OCO5)nn13)O2 (stereo not given)
IC50 [3]: 52.8 µM (active)

Cc1cc(O)n2nc(-c3ccsc3-n3c(C)ccc3C)cc2n1
IC50 [9]: 4.96 µM (active)

Cc1c(C(=O)Nc2ccccc2F)cnn1-c1ccccc1
AC50 (HeLa): 80.9 µM (active)

NC(=O)N/N=C/C=C/c1ccccc1 [PHENYLETHENYLSEMICARBAZONE]
IC50 (Prothrombin): > 50 µM (not active)

NC(=O)c1cccc(Nc2nc(C(N)CCc3ccccc3)cs2)n1 (stereo not given)
IC50 (H9c2): 18.3 µM (active)

C[C@@H]1CN([C@@H](C)CO)C(=O)c2cccc(NC(=O)Nc3ccc(C(F)(F)F)cc3)c2O[C@@H]1CN(C)Cc1ccc(C(F)(F)F)cc1
AC50 [6]: 3.89 µM (active)

COc1ccc(S(=O)(=O)Nc2ccc3c(c2)CC(=O)N([C@@H](C)CO)C[C@@H](C)[C@@H](CN(C)Cc2ccc(C(=O)Nc4ccccc4N)cc2)O3)cc1
AC50 [6]: 1.62 µM (active)

O=C(NC1CCCCCC1)c1c(O)nc2ccccc2c1O
AC50 (HeLa): 62.7 µM (active)

Cc1ccc(NC(=O)c2ccc3ccccc3n2)cc1S(=O)(=O)N(C)C
AC50 (HeLa): 35.4 µM (active)

CCOc1ccc(N(CC(=O)Nc2cccc(F)c2)S(=O)(=O)c2c(C)noc2C)cc1
IC50 (Coagulation factor XII): > 50 µM (inactive)

CCOC(=O)N1CCN(C(=O)c2oc3ccc(S(=O)(=O)N4CCOCC4)cc3c2C)CC1
IC50 (Prothrombin): > 50 µM (not active)

CC1=NNC(=O)C1CCC(=O)N/N=C(/C)c1ccc([N+](=O)[O-])cc1 (stereo not given)
IC50 (Leucine aminopeptidase): 80.6 µM (active)

Cc1ccc(-c2nnc3ccc(SCC(=O)N4CCCc5ccccc54)nn23)cc1
IC50 (Fatty acid synthase [10]): 5.68 µM (active) | IC50 (Fatty acid synthase [11]): 4.07 µM (active) | IC50 (H9c2): 38.4 µM (inactive)

Cc1ccccc1NC(=O)c1ccc(NC(=O)C2CC(=O)OC23CCCCC3)cc1 (stereo not given)
IC50 (Prothrombin): > 50 µM (not active)

O=C(Nc1ccc(Cl)c(Cl)c1)OCc1cccnc1
EC50 [12]: > 30 µM (not active) | EC50 [13]: 2.5 µM (active) | AC50 (HeLa): 39.5 µM (active)

Cc1ccc(-c2nn(-c3ccccc3)cc2/C=C2\SC(=S)N(CC(=O)O)C2=O)cc1
IC50 (Genome polyprotein): 36.5 µM (active) | IC50 [9]: 4.14 µM (active)

COc1ccc(/C=C(\C#N)c2n[nH]c(Cn3cncn3)n2)cc1
IC50 (Coagulation factor XII): > 50 µM (inconclusive)

Cc1noc(C)c1S(=O)(=O)Nc1ccc2c(c1)CC(=O)N([C@@H](C)CO)C[C@H](C)[C@@H](CN(C)Cc1ccc(-c3ccccc3)cc1)O2
AC50 [6]: 4.33 µM (active)

Cc1cc(O)c(C(C)C)cc1C1(c2cc(C(C)C)c(O)cc2C)OC(=O)c2ccccc21
IC50 (Melanocortin receptor 4): > 64.6 µM (inactive) | AC50 (Cytochrome P450 2D6): 3.98 µM (inconclusive) | AC50 (Paired box protein Pax-8): 8.19 µM (active) | EC50 [12]: > 60 µM (not active) | EC50 [14]: 1.24 µM (active) | EC50 (Streptococcus): 3.87 µM (active) | AC50 [15]: 18.8 µM (active) | EC50 [13]: 2.11 µM (active) | AC50 [16]: 1.71 µM (active) | IC50 [17]: > 64.6 µM (inactive) | AC50 [18]: 9.45 µM (active) | EC50 (Streptokinase A): > 150 µM (not active)

O=C(NCC(=O)N(Cc1ccccc1)C(C(=O)NC1CCCCC1)c1ccco1)c1ccco1 (stereo not given)
IC50 (H9c2): 42.2 µM (inactive)
